Data published in article PMC5827971 (Cell, 2017).

Experiments:
[1] = target: T1, CLYBL (Homo sapiens, UniProt Q8N0X4); test: HPLC-UV discontinuous assay, CoASH formation; type: biochemical; conditions: 20 mM glyoxylate, 2.5-200 µM acyl-CoA, 20 mM Tris pH 7.5, 5 mM MgCl2, 1 mM TCEP, 37 °C
T1 sequence (Q8N0X4 23-340): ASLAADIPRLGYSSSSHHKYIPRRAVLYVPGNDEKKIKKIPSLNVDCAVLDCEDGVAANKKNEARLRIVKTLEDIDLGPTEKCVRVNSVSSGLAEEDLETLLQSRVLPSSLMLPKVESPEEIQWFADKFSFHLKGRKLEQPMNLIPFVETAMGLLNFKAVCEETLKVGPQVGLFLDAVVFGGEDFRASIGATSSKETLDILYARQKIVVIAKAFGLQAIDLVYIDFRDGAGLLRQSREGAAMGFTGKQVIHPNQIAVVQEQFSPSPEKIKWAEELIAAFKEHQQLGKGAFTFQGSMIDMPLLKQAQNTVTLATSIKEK

[2] = target: T1, CLYBL; test: HPLC-UV discontinuous assay, acetyl-CoA formation; type: biochemical; conditions: citramalyl-CoA lyase; 0.625-80 µM substrate, 20 mM Tris pH 7.5, 5 mM MgCl2, 1 mM TCEP, 37 °C

In the case of `CCC(=O)SCCNC(=O)CCNC(=O)[C@H](O)C(C)(C)COP(=O)(O)OP(=O)(O)OC[C@H]1O[C@@H](n2cnc3c(N)ncnc32)[C@H](O)[C@@H]1OP(=O)(O)O` [propionyl-CoA], the KM ([1]; methylmalate synthase) is reported as “KM values for acetyl-CoA or propionyl-CoA, the substrates in the forward reaction”.
For `CC(C)(COP(=O)(O)OP(=O)(O)OC[C@H]1O[C@@H](n2cnc3c(N)ncnc32)[C@H](O)[C@@H]1OP(=O)(O)O)[C@@H](O)C(=O)NCCC(=O)NCCSC(=O)C[C@](C)(O)C(=O)O` [citramalyl-CoA], the KM [2] was “The KM value for citramalyl-CoA is comparable to the KM values for acetyl-CoA or propionyl-CoA”.
In the case of `CC(=O)SCCNC(=O)CCNC(=O)[C@H](O)C(C)(C)COP(=O)(O)OP(=O)(O)OC[C@H]1O[C@@H](n2cnc3c(N)ncnc32)[C@H](O)[C@@H]1OP(=O)(O)O` [acetyl-CoA], the KM ([1]; malate synthase) is reported as “KM values for acetyl-CoA or propionyl-CoA, the substrates in the forward reaction”.
